Results: ChEMBL document CHEMBL1141087, “Differential response of estrogen receptor subtypes to 1,3-diarylindene and 2,3-diarylindene ligands” (J Med Chem, 2005)

Assays:
[1] = target: T1, Estrogen receptor beta (Homo sapiens, UniProt Q92731)
[2] = target: T2, Estrogen receptor (Homo sapiens, UniProt P03372)
T2 sequence (P03372 whole entry): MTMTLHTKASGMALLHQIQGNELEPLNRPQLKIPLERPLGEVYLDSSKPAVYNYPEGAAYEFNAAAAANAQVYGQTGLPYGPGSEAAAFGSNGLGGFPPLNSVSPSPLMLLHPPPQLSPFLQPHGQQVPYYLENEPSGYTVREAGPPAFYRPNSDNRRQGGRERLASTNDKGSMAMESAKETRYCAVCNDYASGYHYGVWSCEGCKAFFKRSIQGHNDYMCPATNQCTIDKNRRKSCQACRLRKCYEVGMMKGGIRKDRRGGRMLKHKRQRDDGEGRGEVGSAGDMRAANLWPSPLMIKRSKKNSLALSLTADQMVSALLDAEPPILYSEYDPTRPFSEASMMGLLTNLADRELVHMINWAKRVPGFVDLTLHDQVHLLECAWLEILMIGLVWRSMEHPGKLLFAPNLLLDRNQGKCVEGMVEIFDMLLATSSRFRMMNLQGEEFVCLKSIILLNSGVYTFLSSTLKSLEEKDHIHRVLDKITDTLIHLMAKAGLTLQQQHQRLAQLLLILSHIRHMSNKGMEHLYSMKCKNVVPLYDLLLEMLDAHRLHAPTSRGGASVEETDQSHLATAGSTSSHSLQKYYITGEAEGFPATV
Description: Transcriptional activation of estrogen receptor alpha in U2OS cell using estrogen-regulated luciferase reporter gene plasmid upon incubation for 20-30 mins at RT

[3] = target: T1, Estrogen receptor beta; remark: listed apart in the source
Description: Transcriptional activation of estrogen receptor beta in U2OS cell using estrogen-regulated luciferase reporter gene plasmid upon incubation for 20-30 mins at RT

[4] = target: T2, Estrogen receptor; remark: listed apart in the source

T1 sequence (Q92731 whole entry): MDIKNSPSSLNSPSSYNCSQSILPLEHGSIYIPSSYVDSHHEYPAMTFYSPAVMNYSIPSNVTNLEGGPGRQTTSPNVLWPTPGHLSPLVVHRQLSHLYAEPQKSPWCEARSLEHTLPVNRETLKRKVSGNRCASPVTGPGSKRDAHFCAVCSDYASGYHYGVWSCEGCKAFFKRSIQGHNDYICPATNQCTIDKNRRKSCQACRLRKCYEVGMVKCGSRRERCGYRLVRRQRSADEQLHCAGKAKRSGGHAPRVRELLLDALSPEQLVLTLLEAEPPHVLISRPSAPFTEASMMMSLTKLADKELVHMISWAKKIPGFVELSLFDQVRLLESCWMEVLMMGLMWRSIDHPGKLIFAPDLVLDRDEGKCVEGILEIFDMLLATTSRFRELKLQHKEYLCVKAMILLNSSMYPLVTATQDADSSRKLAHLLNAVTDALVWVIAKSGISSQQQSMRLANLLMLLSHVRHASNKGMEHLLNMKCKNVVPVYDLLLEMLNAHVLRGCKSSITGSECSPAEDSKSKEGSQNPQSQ

Row | Ki [1] [nM] | EC50 [2] [nM] | EC50 [3] [nM] | Ki [4] [nM] | Structure (SMILES)
1 | 421 |  |  |  | O=C(O)c1ccc(C2=C(c3ccc(O)cc3)Cc3cc(O)ccc32)cc1
2 | 1.3 | 17 |  |  | Cc1ccc(C2=C(c3ccc(O)cc3)Cc3cc(O)ccc32)cc1
3 | 147 | 100 |  | 184 | CCC1=C(c2ccc(O)cc2)C(C(=O)Nc2ccc(OCCN3CCCCC3)cc2)c2cc(O)ccc21 (stereo not drawn)
4 |  | 4.3 | 54 |  | Oc1ccc(C2=C(c3ccccc3)c3ccc(O)cc3C2)cc1
5 |  | 0.31 | 0.3 |  | CCC1=C(c2ccc(O)cc2)Cc2cc(O)ccc21
6 | 3.8 |  |  | 7.3 | CC(=O)c1ccc(C2=C(c3ccc(O)cc3)Cc3cc(O)ccc32)cc1
7 |  | 427 |  |  | CCC1=C(c2ccc(O)cc2)C(C(=O)Nc2ccc(O)cc2)c2cc(O)ccc21 (stereo not drawn)
8 | 15 | 109 |  | 59 | Oc1ccc(C2=C(c3ccc(CBr)cc3)c3ccc(O)cc3C2)cc1
9 |  | 158 | 52 |  | CCC1=C(c2ccc(O)cc2)C(C(=O)O)c2cc(O)ccc21 (stereo not drawn)
10 | 0.91 | 15 |  | 2.1 | Oc1ccc(C2=C(c3ccc(C(F)(F)F)cc3)c3ccc(O)cc3C2)cc1
11 | 2.8 | 3.9 | 10 |  | Oc1ccc(C2=C(c3ccc(F)cc3)c3ccc(O)cc3C2)cc1
12 | 1.3 | 7 |  | 8.5 | Oc1ccc(C2=C(c3ccc(O)cc3)c3ccc(O)cc3C2)cc1
13 | 0.46 |  |  | 4.2 | NC(=O)c1ccc(C2=C(c3ccc(O)cc3)Cc3cc(O)ccc32)cc1
14 | 0.49 | 17 |  | 24 | Oc1ccc(C2=C(c3ccc(Cl)cc3)c3ccc(O)cc3C2)cc1
15 | 2.2 | 6.7 |  | 0.67 | Nc1ccc(C2=C(c3ccc(O)cc3)Cc3cc(O)ccc32)cc1

Row | Structure (SMILES) | Ki [1] [nM] | EC50 [2] [nM] | EC50 [3] [nM] | Ki [4] [nM]
16 | CCC1=C(c2ccc(O)cc2)C(CC)c2cc(O)ccc21 (stereo not drawn) |  | 0.059 | 0.3 | 
17 | Oc1ccc(C2=C(c3ccc(OCCN4CCCCC4)cc3)c3ccc(O)cc3C2)cc1 | 0.19 |  |  | 1.7
18 | Oc1ccc(C2=C(Cc3ccccc3)c3ccc(O)cc3C2)cc1 |  | 14 | 37 | 
19 | CCC1=C(c2ccc(O)cc2)C(C(=O)Nc2ccc(OCCN(C)C)cc2)c2cc(O)ccc21 (stereo not drawn) |  | 152 | 512 | 
